This is an account of results in BindingDB's records for patent US8623892 (Viamet Pharmaceuticals, 2014).

Structures are written as SMILES. pIC50: −log10 of the molar value.

For this experiment, the target named is T1, Steroid 17-alpha-hydroxylase/17,20 lyase (Rattus norvegicus, UniProt P11715).
T1 sequence (P11715 whole entry): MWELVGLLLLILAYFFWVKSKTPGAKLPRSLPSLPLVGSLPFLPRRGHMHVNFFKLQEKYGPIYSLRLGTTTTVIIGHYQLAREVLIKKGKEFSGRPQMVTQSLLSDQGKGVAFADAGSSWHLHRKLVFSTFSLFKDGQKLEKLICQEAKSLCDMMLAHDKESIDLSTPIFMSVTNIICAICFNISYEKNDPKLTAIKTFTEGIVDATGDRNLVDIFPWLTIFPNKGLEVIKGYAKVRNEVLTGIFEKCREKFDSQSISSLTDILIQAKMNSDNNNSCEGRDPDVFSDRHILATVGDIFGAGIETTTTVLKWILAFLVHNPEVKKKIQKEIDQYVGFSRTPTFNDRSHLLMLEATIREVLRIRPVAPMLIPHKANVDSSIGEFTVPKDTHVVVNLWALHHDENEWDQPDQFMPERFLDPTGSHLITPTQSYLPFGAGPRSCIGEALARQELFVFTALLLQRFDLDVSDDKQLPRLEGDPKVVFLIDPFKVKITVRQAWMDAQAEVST
The experiment is described as follows: Inhibition Assay. From the text: If a weakly binding metal-binding group is utilized, potency may be suboptimal. On the other hand, if a very tightly binding metal-binding group is utilized, selectivity for the target enzyme versus related metalloenzymes may be suboptimal. The lack of optimal selectivity can be a cause for clinical toxicity due to unintended inhibition of these off-target metalloenzymes. […] It is believed that this off-target inhibition is caused primarily by the indiscriminate binding of the currently utilized 1-imidazole to iron in the active site of CYP2C9, CYP2C19 and CYP3A4.

The term pIC50 denotes −log10 of the IC50, conventionally taken in molar units. Low readings indicate a large IC50, high ones a small IC50. `CC(C)C(O)(c1ccc2cc(OC(F)F)c(OC(F)F)cc2c1)c1c[nH]nn1` (stereo unspecified) [US8623892, 3] had a pIC50 of 6.66.
